Measured values published in patent US20260335398A1, “METHODS FOR TREATING PANCREATIC CANCER WITH A COMBINATION OF DES-METHYL PATEAMINE A AND A CLASS I HDAC INHIBITOR” (Baylor University, priority 2023, published 2026).

Tested on: H3K9ac
Test: Immunoblot of H3K9ac protein levels (FIGS. 5A-5C, 9C)
Type: cell-based
Conditions: romidepsin 15 nM 6 h; with or without DMPatA 2 nM
Method: FIGS. 5A-5C are images of immunoblots of protein levels from whole cell extracts of MIA PaCa-2 cell line following treatment with representative combinations Class 1 HDAC inhibitors and DMPatA, DMPatA alone, and HDAC inhibitor alone. FIG. 5A compares immunoblots of H3K9ac (top panel) and GAPDH (bottom panel) protein levels from whole cell extracts of MIA PaCa-2 cells following treatment with the combination of romidepsin and DMPatA and single drugs. Romidepsin treatment was for 6 hours. FIG. 5B compares immunoblots of H3K9ac protein levels from whole cell extracts of MIA PaCa-2 and KLM cells untreated or following treatment with the combination of entinostat and DMPatA and single drugs. Treatments were for various timepoints ranging from 6 to 24 hours. […]
This apparent hypertranscription observed with the combination, was confirmed by the increase in nascent RNA output above the level of normal cells, following treatment for a total of 18 hours (i.e., 6-hour romidepsin followed by 12-hour washout with or without 2 nM DMPatA), quantified using incorporation of the modified RNA precursor 5-EU. […] Because HDAC inhibitors cause histone hyperacetylation and having observed the increase in gene expression following treatment with the combination, the impact of the combination on histone acetylation was assessed. […]

SMILES: C/C=C1\NC(=O)[C@H]2CSSCC/C=C/[C@H](CC(=O)N[C@H](C(C)C)C(=O)N2)OC(=O)[C@H](C(C)C)NC1=O [romidepsin]
- H3K9 acetylation: only a small effect
